Results reported in patent US11040028B2, “Penicinotam derivative, preparation method and use thereof” (OCEAN UNIVERSITY OF CHINA, priority 2017, dated 2021).

How the values were obtained:
Type in all cases: cell-based
[1] = test system: human dermal fibroblasts CCC-ESF-1; assay: Anti-fibrosis activity test: inhibition of proliferation of human dermal fibroblasts CCC-ESF-1 (CCK-8); conditions: Fibroblast
Summary of the method: (§1)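 Proliferation inhibition is measured by CCK-8 after cells plated at 2×10^4 cells/mL attach overnight (24 h) and then receive test compounds for 48 h at several concentrations, each in triplicate. Optical density at 450 nm gives IR = (1−Ai/Ao)×100%, from which IC50 is computed.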

[2] = test system: BHK-21 cells; assay: Anti-fibrosis activity test: inhibition of BHK-21 cell proliferation (CCK-8); conditions: Mesocricetus auratus, BHK-21, 48 h
Summary of the method: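 Each concentration was tested in triplicate on adhered BHK-21 cells for 48 h, with pirfenidone as reference. A 2 h CCK-8 incubation preceded absorbance reading at 450 nm, and IC50 was obtained from percent inhibition versus blank.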

[3] = test system: mouse macrophages (RAW264.7); assay: Lipopolysaccharide-induced NO secretion in macrophages (Griess); conditions: Mus musculus, RAW264.7, 24 h, RAW264.7, LPS 1 μg/ml, a/b isomers given as first/second symbol, read-out: IC50 (μM), inhibition of lipopolysaccharide-induced NO secretion in macrophages
Summary of the method: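 Indomethacin and resveratrol served as positive controls while compounds were tested across concentrations on LPS-stimulated (1 μg/ml, 24 h) RAW264.7 cells. NO output was quantified colorimetrically (Griess, 548 nm).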

[4] = test system: human fibrosarcoma cells HT-1080; assay: Anti-fibrosis activity test: inhibition of proliferation of human fibrosarcoma cells HT-1080 (CCK-8); conditions: Homo sapiens, HT-1080, 48 h
Summary of the method: as §1

[5] = test system: cardiac fibroblast RAT-iCell-C002; assay: Anti-fibrosis activity test: inhibition of proliferation of cardiac fibroblast RAT-iCell-C002 (CCK-8); conditions: Cardiac fibroblast, 48 h
Summary of the method: as §1

[6] = test system: human lung fibroblasts HFL1; assay: Anti-fibrosis activity test: inhibition of proliferation of human lung fibroblasts HFL1 (CCK-8); conditions: Homo sapiens, HFL1, 48 h
Summary of the method: as §1

[7] = test system: human embryonic lung fibroblast IMR-90; assay: Anti-fibrosis activity test: inhibition of proliferation of human embryonic lung fibroblast IMR-90 (CCK-8)
Summary of the method: as §1

[8] = test system: NF-κB; assay: Immunological activity test: inhibition of NF-κB activity; conditions: initial concentration of 30 μM; a/b isomers given as first/second symbol; read-out: IC50 (μM), inhibitory activity against NF-κB
Summary of the method: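 IC50 values were derived after initial screening of compounds at 30 μM for NF-κB inhibitory activity, with parthenolide serving as the positive control.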

[9] = test system: human hepatic stellate cells LX-2; assay: Anti-fibrosis activity test: inhibition of proliferation of human hepatic stellate cells LX-2 (CCK-8); conditions: Homo sapiens, 48 h
Summary of the method: as §1

[10] = human dermal fibroblasts CCC-ESF-1, CCK-8, 48 hours
[11] = CCK-8, 48 hours after administration
[12] = human fibrosarcoma cells HT-1080, CCK-8, 48 hours
[13] = cardiac fibroblast RAT-iCell-C002, CCK-8, 48 hours
[14] = human lung fibroblasts HFL1, CCK-8, 48 hours
[15] = human embryonic lung fibroblast IMR-90, CCK-8, 48 hours
[16] = human hepatic stellate cells LX-2, CCK-8, 48 hours
[17] = Homo sapiens, CCC-ESF-1 cells, 48 h, CCK-8
[18] = Homo sapiens, IMR-90 cells, 48 h, CCK-8

| IC50 [3] [µM] | IC50 [4, 12] [mM] | IC50 [8] [µM] | IC50 ([4]; HT-1080 cells, 48 h, CCK-8) [mM] | SMILES | IC50 [1, 10] [mM] | IC50 [2, 11] [mM] | IC50 [5, 13] [mM] | IC50 [6, 14] [mM] | IC50 [7, 15] [mM] | IC50 [9, 16] [mM] | IC50 [1, 17] [mM] | IC50 ([2]; 48 h, CCK-8) [mM] | IC50 ([5]; RAT-iCell-C002 cells, CCK-8) [mM] | IC50 ([6]; HFL1 cells, 48 h, CCK-8) [mM] | IC50 [7, 18] [mM] | IC50 ([9]; LX-2, 48 h, LX-2 cells, CCK-8) [mM] |
| --- | --- | --- | --- | --- | --- | --- | --- | --- | --- | --- | --- | --- | --- | --- | --- | --- |
| 1 to 10 | 0.05 to 5 | 1 to 10 |  | O=C1c2c(nc3ccccc3c2OCc2ccccc2F)-c2cccn21 [Compound 599b, 9-((2-fluorobenzyl)oxy)-10H-pyrrolizino[1,2-b]quinolin-10-one] | 0.05 to 5 | 0.05 to 5 | 0.05 to 5 | 0.05 to 5 | 0.05 to 5 | 0.05 to 5 |  |  |  |  |  |  |
| 1 to 10 |  | 1 to 10 | 0.05 to 5 | O=C1c2c(n(CCCN3CCCCC3)c3ccccc3c2=O)-c2cccn21 [Compound 666a, 4-(3-(Piperidin-1-yl)propyl)-9H-pyrrolizino[1,2-b]quinoline-9,10(4H)-dione] |  |  |  |  |  |  | 0.05 to 5 | 0.05 to 5 | 0.05 to 5 | 0.05 to 5 | 0.05 to 5 | 0.05 to 5 |
| 1 to 10 | 0.05 to 5 | 1 to 10 |  | O=C1c2c(nc3ccccc3c2OCCF)-c2cccn21 [Compound 653b, 9-(2-fluoroethoxy)-10H-pyrrolizino[1,2-b]quinolin-10-one] | 0.05 to 5 | 0.05 to 5 | 0.05 to 5 | 0.05 to 5 | 0.05 to 5 | 0.05 to 5 |  |  |  |  |  |  |
| 1 to 10 | 0.05 to 5 | 1 to 10 |  | COc1cccc2nc3c(c(O)c12)C(=O)n1cccc1-3 [Compound 473b, 9-hydroxy-8-methoxy-10H-pyrrolizino[1,2-b]quinolin-10-one] | 0.05 to 5 | 0.05 to 5 | 0.05 to 5 | 0.05 to 5 | 0.05 to 5 | 0.05 to 5 |  |  |  |  |  |  |
| 0.1 to 1 | 0.05 to 5 | 1 to 10 |  | O=C(Cn1c2c(c(=O)c3ccccc31)C(=O)n1cccc1-2)c1ccc(Cl)cc1 [Compound 90a, 4-(2-(4-Chlorophenyl)-2-oxoethyl)-9H-pyrrolizino[1,2-b]quinoline-9,10(4H)-dione] | 0.05 to 5 | 0.05 to 5 | 0.05 to 5 | 0.05 to 5 | 0.05 to 5 | < 0.05 |  |  |  |  |  |  |
| 1 to 10 |  | 1 to 10 | 0.05 to 5 | Cc1cccc2nc3c(c(O)c12)C(=O)n1cccc1-3 [Compound 678b, 9-hydroxy-8-methyl-10H-pyrrolizino[1,2-b]quinolin-10-one] |  |  |  |  |  |  | 0.05 to 5 | 0.05 to 5 | 0.05 to 5 | 0.05 to 5 | 0.05 to 5 | 0.05 to 5 |
| 0.1 to 1 | 0.05 to 5 | 1 to 10 |  | O=C1c2c(n(Cc3ccccc3)c3ccccc3c2=O)-c2cccn21 [Compound 103a, 4-Benzyl-9H-pyrrolizino[1,2-b]quinoline-9,10(4H)-dione] | 0.05 to 5 | 0.05 to 5 | 0.05 to 5 | 0.05 to 5 | < 0.05 | 0.05 to 5 |  |  |  |  |  |  |
| 1 to 10 | 0.05 to 5 | 1 to 10 |  | O=C1c2c(nc3ccccc3c2OCCCO)-c2cccn21 [Compound 16b, 9-(3-hydroxypropoxy)-10H-pyrrolizino[1,2-b]quinolin-10-one] | 0.05 to 5 | 0.05 to 5 | 0.05 to 5 | 0.05 to 5 | 0.05 to 5 | 0.05 to 5 |  |  |  |  |  |  |
| 1 to 10 | 0.05 to 5 | 1 to 10 |  | O=C1c2c(nc3ccccc3c2OCc2ccccc2I)-c2cccn21 [Compound 576b, 9-((2-iodobenzyl)oxy)-10H-pyrrolizino[1,2-b]quinolin-10-one] | 0.05 to 5 | 0.05 to 5 | 0.05 to 5 | 0.05 to 5 | 0.05 to 5 | 0.05 to 5 |  |  |  |  |  |  |
| 0.1 to 1 | 0.05 to 5 | 1 to 10 |  | O=C(O)COc1c2c(nc3ccc(C(F)(F)F)cc13)-c1cccn1C2=O [Compound 279b, 2-((10-Oxo-7-(trifluoromethyl)-10H-pyrrolizino[1,2-b]quinolin-9-yl)oxy)acetic acid] | 0.05 to 5 | 0.05 to 5 | 0.05 to 5 | 0.05 to 5 | 0.05 to 5 | 0.05 to 5 |  |  |  |  |  |  |
| 1 to 10 | 0.05 to 5 | 10 to 50 |  | N#Cc1cccc2[nH]c3c(c(=O)c12)C(=O)n1cccc1-3 [Compound 476a, 9,10-Dioxo-4,10-dihydro-9H-pyrrolizino[1,2-b]quinoline-8-carbonitrile] | 0.05 to 5 | < 0.05 | 0.05 to 5 | 0.05 to 5 | 0.05 to 5 | 0.05 to 5 |  |  |  |  |  |  |
| 1 to 10 | 0.05 to 5 | 1 to 10 |  | O=C1c2c(n(Cc3cccc(C(F)(F)F)c3)c3ccccc3c2=O)-c2cccn21 [Compound 598a, 4-(3-(Trifluoromethyl)benzyl)-9H-pyrrolizino[1,2-b]quinoline-9,10(4H)-dione] | 0.05 to 5 | 0.05 to 5 | 0.05 to 5 | 0.05 to 5 | 0.05 to 5 | 0.05 to 5 |  |  |  |  |  |  |
| 10 to 50 |  | 0.1 to 1 | 0.05 to 5 | O=C1c2nc3ccccc3c(OCCCN3CCOCC3)c2-c2cccn21 [Compound 787b, 11-(3-morpholinopropoxy)-5H-pyrrolizino[2,1-b]quinolin-5-one] |  |  |  |  |  |  | 0.05 to 5 | 0.05 to 5 | 0.05 to 5 | 0.05 to 5 | 0.05 to 5 | 0.05 to 5 |
| 1 to 10 | 0.05 to 5 | 1 to 10 |  | O=C1c2c(n(Cc3ccccc3I)c3ccccc3c2=O)-c2cccn21 [Compound 576a, 4-(2-Iodobenzyl)-9H-pyrrolizino[1,2-b]quinoline-9,10(4H)-dione] | 0.05 to 5 | 0.05 to 5 | 0.05 to 5 | 0.05 to 5 | 0.05 to 5 | 0.05 to 5 |  |  |  |  |  |  |
| 1 to 10 | 0.05 to 5 | 0.1 to 1 |  | Cn1c2c(c(=O)c3ccc(N4CCNCC4)cc31)C(=O)n1cccc1-2 [Compound 328a, 4-Methyl-6-(piperazin-1-yl)-9H-pyrrolizino[1,2-b]quinoline-9,10(4H)-dione] | 0.05 to 5 | < 0.05 | 0.05 to 5 | 0.05 to 5 | 0.05 to 5 | 0.05 to 5 |  |  |  |  |  |  |
| 10 to 50 | 0.05 to 5 | 1 to 10 |  | COc1ccc2c(=O)c3c([nH]c2c1)-c1cccn1C3=O [Compound 560a, 6-Methoxy-9H-pyrrolizino[1,2-b]quinoline-9,10(4H)-dione] | 0.05 to 5 | 0.05 to 5 | 0.05 to 5 | 0.05 to 5 | 0.05 to 5 | 0.05 to 5 |  |  |  |  |  |  |
| 1 to 10 | 0.05 to 5 | 1 to 10 |  | COCCn1c2c(c(=O)c3ccccc31)C(=O)n1cccc1-2 [Compound 652a, 4-(2-Methoxyethyl)-9H-pyrrolizino[1,2-b]quinoline-9,10(4H)-dione] | 0.05 to 5 | 0.05 to 5 | 0.05 to 5 | 0.05 to 5 | 0.05 to 5 | 0.05 to 5 |  |  |  |  |  |  |
| 1 to 10 |  | 0.1 to 1 | 0.05 to 5 | O=C1c2c(n(CCCN3CCNCC3)c3ccccc3c2=O)-c2cccn21 [Compound 669a, 4-(3-(Piperazin-1-yl)propyl)-9H-pyrrolizino[1,2-b]quinoline-9,10(4H)-dione] |  |  |  |  |  |  | 0.05 to 5 | 0.05 to 5 | 0.05 to 5 | 0.05 to 5 | 0.05 to 5 | 0.05 to 5 |

| SMILES | IC50 [3] [µM] | IC50 [4, 12] [mM] | IC50 [8] [µM] | IC50 ([4]; HT-1080 cells, 48 h, CCK-8) [mM] | IC50 [1, 10] [mM] | IC50 [2, 11] [mM] | IC50 [5, 13] [mM] | IC50 [6, 14] [mM] | IC50 [7, 15] [mM] | IC50 [9, 16] [mM] | IC50 [1, 17] [mM] | IC50 ([2]; 48 h, CCK-8) [mM] | IC50 ([5]; RAT-iCell-C002 cells, CCK-8) [mM] | IC50 ([6]; HFL1 cells, 48 h, CCK-8) [mM] | IC50 [7, 18] [mM] | IC50 ([9]; LX-2, 48 h, LX-2 cells, CCK-8) [mM] |
| --- | --- | --- | --- | --- | --- | --- | --- | --- | --- | --- | --- | --- | --- | --- | --- | --- |
| O=C1c2c([nH]c3cc(N4CCNCC4)ccc3c2=O)-c2cccn21 [Compound 319a, 6-(piperazin-1-yl)-9H-pyrrolizino[1,2-b]quinoline-9,10(4H)-dione] | 1 to 10 | 0.05 to 5 | 1 to 10 |  | < 0.05 | 0.05 to 5 | 0.05 to 5 | 0.05 to 5 | 0.05 to 5 | 0.05 to 5 |  |  |  |  |  |  |
